Experimental findings from publication PMC10318456, “Selective inhibitors of the PSEN1–gamma-secretase complex” (The Journal of Biological Chemistry, 2023) are described below.

Holding throughout (format): cell-based
In test [1] the target is T1, PSEN1-APH1A γ-secretase complex (Homo sapiens, UniProt P49768).
T1 construct: expressed in transfected cells; host or cells: Psen1/2 double KO/Aph1ABC triple KO MEFs, pMSCV retroviral PSEN-IRES-APH1
Kind of test: Aβ40 secretion by MEF cell line expressing only PSEN1-APH1A γ-secretase (APP-C99-GFP reporter). As to conditions: 8 h, Beerse site unless otherwise indicated, read-out: IC50, Aβ40 peptides. The source says:
Mouse embryonic fibroblast (MEF) cells deficient for the Psen and Aph1 genes (Psen1/2^−/−, Aph1ABC^−/−) were reconstituted with human PSEN1 or PSEN2 and with human APH1A or APH1B to generate four independent cell lines, each constitutively expressing exclusively one type of γ-secretase complex (Fig. S1A) ([19]). A human APP-C99-GFP reporter was introduced to enable the measurement of Aβ peptides in the conditioned media of the cells to monitor γ-secretase activity. The assay was established in a 96-well format.
(§1) Conditional Psen1/2 double KO mice were crossed with conditional Aph1ABC triple KO mice ([29], [52], [58], [59]). At embryonic day 7.5, embryos were dissected and dissociated, and cells were plated in the presence of Dulbecco’s modified Eagle’s medium (DMEM)/F12 50% fetal calf serum (FCS) (Invitrogen). Primary MEFs were immortalized by transduction with LargeT antigen. Psen1/2 double KO/Aph1ABC triple KO MEFs were generated by transduction with a Cre-GFP–expressing adenoviral vector, and GFP-positive MEFs were sorted by fluorescence-activated cell sorting analysis. Psen1/2 Aph1ABC-deficient MEFs were maintained in DMEM/f12 10% FCS. To rescue γ-secretase expression, Psen1/2 double KO/Aph1ABC triple KO MEFs were transduced using Murine Stem Cell Virus retroviral vector system (pMSCV) viral vectors (Clontech) containing the human coding sequences of the different PSEN and APH1 homologs and the zeocin selection marker. An Internal Ribosome Entry Site sequence was cloned between the coding sequences for PSEN and APH1 to ensure co-expression of both proteins. Stable transfected cell lines were selected using 500-μg/ml zeocin (Invitrogen). Four different combinations were made: PSEN1 and APH1AL, PSEN1 and APH1B, PSEN2 and APH1AL, and PSEN2 and APH1B. These cell lines were transduced with pMSCV viral vectors (Clontech) expressing APP-C99-GFP-puromycin. After puromycin selection (5 μg/ml), GFP-positive cells were selected through FACS sorting. For the alanine mutagenesis experiment, pMSCV PSEN1-APH1A viral vectors were generated by using a long PCR-based QuikChange strategy (Stratagene). Stable cell lines without clonal selection were generated for each mutant as described above. All cell lines were regularly tested for the absence of mycoplasma and used for maximum 20 passages in culture.
The number of plated cells and incubation times were determined in respect to linearity of Aβ peptide secretion, the dynamic range of Aβ peptide quantification in the medium, and sensitivity to dimethylsulfoxide (DMSO). […] The cell viability was assessed using the CellTiter-Glo Luminescent assay (Promega) that measures ATP production. […]

The target of test [2] is T2, PSEN1 Y154A–APH1A γ-secretase complex (Homo sapiens, UniProt P49768+Q92542+Q96BI3+Q9NZ42, Y154A).
T2 construct: expressed in transfected cells; host or cells: Psen1/2 double KO/Aph1ABC triple KO MEFs, pools without clonal selection
Put plainly: Aβ40 secretion, MEF cell pool restored with PSEN1 Y154A–APH1A. As to conditions: PSEN1 Y154A (TM2)–APH1A cell pool; N = 3 to 4; mean (95% CI); decimal comma. Here is the method:
(§2) We turned to experimental site–directed mutagenesis and selected a series of amino acids (Fig. 3) in the entrance channel for mutation to alanine. […] More importantly, they were all enzymatically active as shown by the secretion of Aβ40 in the supernatants of the cell cultures (Fig. 3B).
as §1, with “After puromycin selection (5 μg/ml), GFP-positive cells were selected through FACS sorting. For the alanine mutagenesis experiment, pMSCV PSEN1-APH1A viral vectors were generated by using a long PCR-based QuikChange strategy (Stratagene). Stable cell lines without clonal selection were generated for each mutant as described above. All cell lines were regularly tested for the absence of mycoplasma and used for maximum 20 passages in culture.” left out
(§3) The number of plated cells and incubation times were determined in respect to linearity of Aβ peptide secretion, the dynamic range of Aβ peptide quantification in the medium, and sensitivity to dimethylsulfoxide (DMSO). […] The cell viability was assessed using the CellTiter-Glo Luminescent assay (Promega) that measures ATP production. […] We however measured five compounds at the Leuven site and noticed that absolute IC50 values were different (Fig. S2). […]

The target in test [3] is T3, PSEN1 L172A–APH1A γ-secretase complex (Homo sapiens, UniProt P49768+Q92542+Q96BI3+Q9NZ42, L172A).
T3 construct: expressed in transfected cells; host or cells: Psen1/2 double KO/Aph1ABC triple KO MEFs, pools without clonal selection
Kind of test: Aβ40 secretion, MEF cell pool restored with PSEN1 L172A–APH1A. As to conditions: PSEN1 L172A (TM3)–APH1A cell pool; N = 3 to 4; mean (95% CI); decimal comma. The procedure:
as §2, §1
The number of plated cells and incubation times were determined in respect to linearity of Aβ peptide secretion, the dynamic range of Aβ peptide quantification in the medium, and sensitivity to dimethylsulfoxide (DMSO). […] MEF cells were plated in DMEM F12 supplemented with 10% FCS at 10,000 cells per well in 96-well clear bottom plates in the late afternoon and cultured for 16 h at 37 °C, 5% CO2. In the morning of the second day, the medium was replaced with 60 μl of DMEM/F12 supplemented with 2% FCS, and GSI or DMSO (controls) were added. Compounds were tested in serial dilutions with concentrations ranging from […] to 0.1 nM with 3-fold changes. The final concentration of DMSO in all wells was 0.2%. Plates were put in the incubator again at 37 °C, 5% CO2. After 8 h, the culture media were collected, and 30 μl was used to measure Aβ40 peptides. The cell viability was assessed using the CellTiter-Glo Luminescent assay (Promega) that measures ATP production. All screens were performed at one site, and reported IC50 values throughout the manuscript are from this site (Beerse) unless otherwise indicated. We however measured five compounds at the Leuven site and noticed that absolute IC50 values were different (Fig. S2). The main goal of the current work is to explore the basis for inhibitor selectivity for different γ-secretases, and selectivity was consistent in the assays at the two sites (Fig. S2).
Standard 96-well SECTOR plates (MSD) were coated with 1.5 μg/ml anti-Aβ JRFcAβ40/28 capture antibody in a final volume of 50 μl of PBS 0.05% Tween 20. After overnight incubation at 4 °C, the plates were five times rinsed with PBS 0.05% Tween 20 and blocked with 150 μl per well of casein buffer (PBS with 1% casein, pH 7.4) for 4 h at room temperature. Standards (synthetic human Aβ 1–40) were diluted in culture media. […]

The target of test [4] is T4, PSEN1 Y154A–APH1A γ-secretase complex (Homo sapiens, UniProt P49768, Y154A).
T4 construct: expressed in transfected cells; host or cells: Psen1/2 double KO/Aph1ABC triple KO MEFs, pools without clonal selection
Kind of test: Aβ40 secretion, MEF cell pool restored with PSEN1 Y154A–APH1A. As to conditions: decimal comma. The procedure: as §2
as §1, with “After puromycin selection (5 μg/ml), GFP-positive cells were selected through FACS sorting. For the alanine mutagenesis experiment, pMSCV PSEN1-APH1A viral vectors were generated by using a long PCR-based QuikChange strategy (Stratagene). Stable cell lines without clonal selection were generated for each mutant as described above. All cell lines were regularly tested for the absence of mycoplasma and used for maximum 20 passages in culture.” left out
as §3

Broadly, the IC50 is the concentration at which inhibition is half-maximal. As for `O=S(=O)(c1ccc(Cl)cc1)N1[C@H]2CC[C@@H]([C@H]1c1ccc(C(F)(F)F)cc1)[C@@H](O)C2` [(+)-9b], the half-inhibitory concentration (IC50) in test [1] worked out at 22 nM; in test [2], 1.03 µM; in test [3] it was 0.0094 µM.
Turning to `C[C@H](NC(=O)Cc1cc(F)cc(F)c1)C(=O)N[C@H](C(=O)OC(C)(C)C)c1ccccc1` [DAPT], the IC50 in test [4] (PSEN1 Y154A (TM2)–APH1A cell pool, N = 3 to 4, mean (95% CI)) was found to be 0.103 µM. The “IC50 fold change to WT” value in test [4] (PSEN1 Y154A–APH1A cell pool) is on record as 0,611 fold.
